Legend:
Format in all cases: cell-based
[1] = tested on: Chrysosporium keratinophilum; assay: Agar plate disc-diffusion, antifungal, inhibition zone; settings: fungal
Procedure: (§1) The agar plate disc-diffusion method was applied. […] The discs were then placed onto the surface of agar plates (nutrient agar for bacteria and Sabouraud's dextrose agar for fungi) seeded with the test organism. Each plate contained 15 mL of the agar medium, previously seeded with 0.2 mL of the broth culture of each organism pregrown for 18 hours. The plates were incubated at 37° C. for 48 hours, and 72 hours for fungi. The inhibition zones was measured in mm. Discs impregnated with DMSO were used as a control, and its inhibition zone was subtracted from the tested compound actual inhibition zone.

Aspergillus flavus = assay: as above; settings: fungal
Procedure: as §1

Staphylococcus aureus = assay: Agar plate disc-diffusion, antibacterial, inhibition zone; settings: Gram positive
Procedure: as §1

Bacillus cereus = assay: as above; settings: Gram positive
Procedure: as §1

Escherichia coli = assay: as above; settings: Gram negative
Procedure: as §1

Pseudomonas aeruginosa = assay: as above; settings: Gram negative
Procedure: as §1

[2] = A = concentration of comp. = 10,000 μL
[3] = B = concentration of comp. = 30,000 μL
[4] = C = concentration of comp. = 50,000 μL

N/C(=N\OC(=O)CSc1nnc(-c2ccccc2)o1)c1ccc([N+](=O)[O-])cc1 [Compound 3, 4-nitro-N′-(2-(5-phenyl-1,3,4-oxadiazol-2-ylthio)acetoxy)benzimidamide]
inhibition zone, Chrysosporium keratinophilum [1, 2]: 26 mm
inhibition zone, Chrysosporium keratinophilum [1, 3]: 28 mm
inhibition zone, Chrysosporium keratinophilum [1, 4]: 43 mm
inhibition zone, Aspergillus flavus (Aspergillus flavus; [2]): 17 mm
inhibition zone, Aspergillus flavus (Aspergillus flavus; [3]): 23 mm
inhibition zone, Aspergillus flavus (Aspergillus flavus; [4]): 35 mm
inhibition zone, Staphylococcus aureus (Staphylococcus aureus; [2]): 19 mm
inhibition zone, Staphylococcus aureus (Staphylococcus aureus; [3]): 22 mm
inhibition zone, Staphylococcus aureus (Staphylococcus aureus; [4]): 38 mm
inhibition zone, Bacillus Cereus (Bacillus cereus; [2]): 20 mm
inhibition zone, Bacillus Cereus (Bacillus cereus; [3]): 25 mm
inhibition zone, Bacillus Cereus (Bacillus cereus; [4]): 34 mm
inhibition zone, Escherichia coli (Escherichia coli; [2]): 27 mm
inhibition zone, Escherichia coli (Escherichia coli; [3]): 33 mm
inhibition zone, Escherichia coli (Escherichia coli; [4]): 48 mm
inhibition zone, Pseudomonas aeruginosa (Pseudomonas aeruginosa; [2]): 19 mm
inhibition zone, Pseudomonas aeruginosa (Pseudomonas aeruginosa; [3]): 25 mm
inhibition zone, Pseudomonas aeruginosa (Pseudomonas aeruginosa; [4]): 36 mm
